Patent US4301313A, “Halogenated ethynyl biphenyls” (Eli-Lilly and Company, priority 1974, dated 1981)
Several values for one entry are separate records, joined by “and”; a condition that tells them apart may be missing. Identical values can stand only once.

Assays:
[1] = carrageenin induced test, compound administered about 20 hours prior; format: in vivo; settings: rat, dose 10 (unit not given), about 20 hours prior to test
Description: Representative compounds were also evaluated for anti-inflammatory activity in the test method described by C. A. Winter at 111 Proc. Soc. Exp. Biol. Med., 544 (1962). In this method, inflammation is created by injecting carrageenin into the hind paw of rats. Test compounds are administered prior to injection to determine percent inhibition of the subsequent inflammation, in comparison with control animals.
Each of 4-biphenylylacetylene and (4-(2-fluorophenyl)phenyl)acetylene was evaluated again in the carrageenin induced test method reported in Examples 60-80. However, in these tests, the compound was administered about 20 hours prior to the test procedures.

[2] = analgesic activity, acetic acid-induced writhing; format: in vivo, mouse (albino male); settings: mouse, p.o., dose reducing writhing frequency by 50%; 30, 90, 180 minutes after administration
Description: Representative compounds were also evaluated for analgesic activity. The evaluation was conducted by using acetic acid-induced writhing in mice as the pain model. Clinically effective analgesis are effective when tested in this model: see Koster et al., "Acetic Acid for Analgesic Screening," 18 Fed. Proc. 412 (1959).
In a method similar to that reported by Koster et al., standard strain albino male mice weighing 20-22 grams were fasted overnight. The respective compound or vehicle (as control) was administered by gastric lavage (p.o.). Each compound was administered in an aqueous suspension of 1% methylcellulose in water. […] At 30, 90, and 180 minutes after administration, writhing was induced by the intraperitoneal administration of 55 mg./kg. of acetic acid (0.55%). Each treatment group consisted of 5 mice and separate groups were examined at each observation time. The total number of writhes for the treatment group were counted in a 10-minute observation period starting 5 minutes after the acetic acid administration. The treatment totals were compared to controls and a percent inhibition calculated as follows: [formula] […] An ED50, which represented the dose that would reduce the writhing frequency by 50%, was estimated from a dose-reponse curve of three or more points. A dose range was reported if only two points were availale for the dose response curve and they bracketed the 50% level. If data was available at 100 mg./kg., only, then the estimated ED50 was reported simply as less than 100 (<100).

[3] = antipyretic effect in yeast-induced fever; format: in vivo, rat
Description: (4-(2-Fluorophenyl)phenyl)acetylene was evaluated for antipyretic effect in rats. Fever was induced by subcutaneous injection of yeast, a technique reported at 54 J. Pharm. Exp. Ther. 346 (1935). A total of 24 rats was employed, divided into 6 treatment groups. One group was a normal control, without even the yeast injection. A second group served as a yeast control, receiving yeast injection but none of the test compound. All of the remaining groups received the test compound, in the following pattern: no yeast+100 mg./kg. of compound yeast+100 mg./kg. of compound yeast+50 mg./kg. of compound yeast+10 mg./kg. of compound The procedure was that yeast was administered to all rats at the same time, and temperatures were ascertained two hours later, at which time the test compound was administered to those groups assigned to receive it. Temperatures of all animals were also recorded thereafter at 1.0, 1.5, 2.0, 2.5, and 3.0 hours following administration of the test compound.

[4] = ultraviolet-induced erythema test, topical application in alcohol solution; format: in vivo, guinea pig; settings: for Erythemic score, 1 Hr. after U.V. exposure / Erythemic score, 1.5 Hr. after U.V. exposure / Erythemic score, 2 Hr. after U.V. exposure / Erythemic score, 2.5 Hr. after U.V. exposure: unweighted; for Total erythemic score: control 78
Description: The compounds of the present invention were evaluated for anti-inflammatoryactivity by the ultraviolet-induced erythema blocking test. The test procedures were a modification of the Winder method (Winder, C. V.; Wax, J.; Burr, V.; Been, M.; and Posiere, C. E.: A Study of Pharmacological Influences on Ultraviolet Erythema in Guinea Pigs. Arch. Int. Pharmacodyn. 116: 261, 1958). Male albino guinea pigs weighing 240-300 gm. were used. The hair on the back was clipped and chemically depilated 15-18 hours before each experiment. The animals were fasted overnight, and on the day of the experiment, were randomized and placed in clear plastic partitioned holders 10×20 cm. wide and 15 cm. high.
The source of ultraviolet light was a Hanovia lamp (Kromayer-Model 10). A notebook reinforcement ring was placed upon the lens of the lamp to provide an area of contrast for grading purposes. The lens was then placed in contact with the skin of the guinea pig's back. Exposure time to UV was for a period of 4 seconds. Beginning one hour after exposure and thereafter at half-hour intervals for another 11/2 hours, the degree of resulting erythema was graded by an arbitrary scoring system based upon the degree of contrast and redness formed. Anti-inflammatory agents delay the development of the erythema and have their greatest effect at the initial grading periods. The scores were, therefore, weighted by factors of 4, 3, 2, and 1 at the 1.0, 1.5, 2.0, and 2.5 hour scoring times, respectively. The erythema was graded as follows:
Total scores from each treatment group of four guinea pigs were compared to the scores of the control group. The percent inhibition was calculated as follows: [formula] In the case of compounds showing inhibition, retesting was carried out at a plurality of doses to enable calculation of an ED50 for each such compound. "ED50 " designates that dose which provides 50% inhibition. Calculation of the ED50 was either by a standard linear regression method or by estimation from a dose-response curve of three or more points. The compounds so tested and their ED50 s were as follows:
(4-(2-Fluorophenyl)phenyl)acetylene was also evaluated for anti-inflammatory effect when applied topically. The test procedures were the same as those reported in Examples 29-52 except for three differences: the compound was applied topically in an alcohol solution immediately after exposure to the ultraviolet; scores were not weighted; and results were recorded only as percent inhibition.

[5] = adjuvant-induced arthritis test (paw volume); format: in vivo, rat (male albino); settings: rat, oral

Question: What does the source list for `C#Cc1ccc(-c2ccccc2F)cc1` [(4-(2-fluorophenyl)phenyl)acetylene]?
Answer: % Inhibition [1]: 42% and 60%; Estimated ED50 [2]: 20 mg/kg; Temperatures of rats receiving both yeast and test compound ([3]; 10, 50 and 100 mg./kg., all reading times): uniformly lower; Temperature change in rats receiving no yeast injection ([3]; no yeast, 100 mg./kg.): some lowering of temperature occurred; Statistical significance of temperature change in rats receiving no yeast ([3]; no yeast, 100 mg./kg., versus normal control and yeast control groups): not statistically significant; Antipyretic action ([3]; rats, yeast fever, conclusion): exhibited antipyretic action; Statistical significance of temperature differences, 1.5 hour reading ([3]; yeast rats, 50 mg./kg. and 100 mg./kg., 1.5 hour): not statistically significant; Statistical significance of temperature differences, 1.0 hour reading ([3]; yeast rats, all dose levels, 1.0 hour): not statistically significant; Statistical significance of temperature differences, all other doses ([3]; yeast rats, all other doses/readings): statistically significant; % Inhibition ([4]; 1 μg applied): 28%; Erythemic score, 1 Hr. after U.V. exposure ([4]; 1 μg applied): 6; Erythemic score, 1.5 Hr. after U.V. exposure ([4]; 1 μg applied): 13; Erythemic score, 2 Hr. after U.V. exposure ([4]; 1 μg applied): 18; Erythemic score, 2.5 Hr. after U.V. exposure ([4]; 1 μg applied): 19; Total erythemic score ([4]; 1 μg applied): 56; % Inhibition ([4]; 10 μg applied): 41%; Erythemic score, 1 Hr. after U.V. exposure ([4]; 10 μg applied): 5; Erythemic score, 1.5 Hr. after U.V. exposure ([4]; 10 μg applied): 10; Erythemic score, 2 Hr. after U.V. exposure ([4]; 10 μg applied): 14; Erythemic score, 2.5 Hr. after U.V. exposure ([4]; 10 μg applied): 17; Total erythemic score ([4]; 10 μg applied): 46; % Inhibition ([4]; 100 μg applied): 83%; Erythemic score, 1 Hr. after U.V. exposure ([4]; 100 μg applied): 0; Erythemic score, 1.5 Hr. after U.V. exposure ([4]; 100 μg applied): 1; Erythemic score, 2 Hr. after U.V. exposure ([4]; 100 μg applied): 4; Erythemic score, 2.5 Hr. after U.V. exposure ([4]; 100 μg applied): 8; Total erythemic score ([4]; 100 μg applied): 13; Percent Inhibition of Volume Increase, Day 7 ([5]; dose 1 (unit not given)): 27% and 22%; Percent Inhibition of Volume Increase, Day 7 ([5]; dose 3 (unit not given)): 35% and 29%; Percent Inhibition of Volume Increase, Day 7 ([5]; dose 10 (unit not given)): 30% and 23%; Percent Inhibition of Volume Increase, Day 14 ([5]; dose 10 (unit not given), Day 14): 5% and 0%
